# ChEMBL document CHEMBL1201862, “PubChem BioAssay data set” (2004)
# The source made the active and inactive calls.
# Tests used:
# [1] = Dd2 parasite growth inhibition in erythrocytes – SYBR Green, dry powder samples, set 4, dose response (AID 1159572); type: functional, cell-based
# [2] = viability loss in HepG2 hepatoma cells – cell-based, cherry-picks, set 5, cytotoxicity control, dose response (AID 1053118); type: functional
# [3] = viability loss in A549 lung cancer cells – cell-based, cherry-picks, […], cytotoxicity control, dose response (AID 1053119); type: functional
# [4] = inhibition of fibronectin matrix deposition – AH1F cells, Alexa488-fibronectin fluorescence, cherry-pick, set 2, dose response (AID 1117283); type: functional, cell-based
# [5] = Trypanosoma cruzi growth suppression in host cells – NIH3T3 host cells, beta-gal luminescence, confirmation (AID 2044); type: functional, cell-based;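 further: intracellular parasites grown in NIH/3T3 mouse fibroblasts as host cells; luminescent beta-galactosidase reporter signal from transgenic T. cruzi replicating inside host cells; inhibitors lower the luminescence signal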
# [6] = microbe, parasite or virus in culture; type: functional; settings: Mycobacterium tuberculosis
# [7] = NIH3T3 cell viability loss – ATP luminescence, mouse fibroblasts, counter-screen, dose response (AID 2010); type: functional, cell-based;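 further: cells exposed to compound for about 90 hours before reading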
# [8] = target: T1, Replicative DNA helicase DnaB (Mycobacterium tuberculosis, UniProt P9WMR3); test: DnaB intein splicing inhibitors, dose response, biochemical, cell-free fluorescence (AID 449749); type: functional
# T1 sequence (P9WMR3 whole entry): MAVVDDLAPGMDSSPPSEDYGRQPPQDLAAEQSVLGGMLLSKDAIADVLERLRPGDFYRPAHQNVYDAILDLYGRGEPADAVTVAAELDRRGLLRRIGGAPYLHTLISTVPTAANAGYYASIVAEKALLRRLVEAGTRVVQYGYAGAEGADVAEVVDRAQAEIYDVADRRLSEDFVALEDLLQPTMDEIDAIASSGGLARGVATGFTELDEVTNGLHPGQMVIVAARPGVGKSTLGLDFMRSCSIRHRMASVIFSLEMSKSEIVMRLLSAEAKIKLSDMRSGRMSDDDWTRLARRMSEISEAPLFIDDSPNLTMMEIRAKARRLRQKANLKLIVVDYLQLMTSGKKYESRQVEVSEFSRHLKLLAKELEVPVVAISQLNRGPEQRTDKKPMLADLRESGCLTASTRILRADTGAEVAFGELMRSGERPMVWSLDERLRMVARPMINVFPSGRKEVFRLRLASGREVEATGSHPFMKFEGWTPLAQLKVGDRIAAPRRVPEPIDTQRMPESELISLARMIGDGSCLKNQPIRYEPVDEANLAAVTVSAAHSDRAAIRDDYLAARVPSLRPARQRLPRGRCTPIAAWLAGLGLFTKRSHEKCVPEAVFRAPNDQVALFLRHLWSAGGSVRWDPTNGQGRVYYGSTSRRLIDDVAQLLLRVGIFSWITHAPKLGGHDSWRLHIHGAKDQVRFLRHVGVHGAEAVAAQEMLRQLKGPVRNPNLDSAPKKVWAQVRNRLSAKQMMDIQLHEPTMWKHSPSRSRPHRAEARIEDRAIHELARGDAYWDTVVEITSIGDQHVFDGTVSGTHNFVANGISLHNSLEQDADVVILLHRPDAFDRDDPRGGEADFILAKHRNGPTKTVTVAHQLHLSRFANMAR
# Protein RecA = target: T2, Protein RecA (Mycobacterium tuberculosis, UniProt P9WHJ3); test: Fluorescence Cell-Free Homogeneous Dose Retest to Identify Inhibitors of RecA-Intein Splicing Activity. [Related pubchem assays (depositor defined):AID2097, AID2223, AID489010, AID492950]; type: functional
# T2 sequence (P9WHJ3 whole entry): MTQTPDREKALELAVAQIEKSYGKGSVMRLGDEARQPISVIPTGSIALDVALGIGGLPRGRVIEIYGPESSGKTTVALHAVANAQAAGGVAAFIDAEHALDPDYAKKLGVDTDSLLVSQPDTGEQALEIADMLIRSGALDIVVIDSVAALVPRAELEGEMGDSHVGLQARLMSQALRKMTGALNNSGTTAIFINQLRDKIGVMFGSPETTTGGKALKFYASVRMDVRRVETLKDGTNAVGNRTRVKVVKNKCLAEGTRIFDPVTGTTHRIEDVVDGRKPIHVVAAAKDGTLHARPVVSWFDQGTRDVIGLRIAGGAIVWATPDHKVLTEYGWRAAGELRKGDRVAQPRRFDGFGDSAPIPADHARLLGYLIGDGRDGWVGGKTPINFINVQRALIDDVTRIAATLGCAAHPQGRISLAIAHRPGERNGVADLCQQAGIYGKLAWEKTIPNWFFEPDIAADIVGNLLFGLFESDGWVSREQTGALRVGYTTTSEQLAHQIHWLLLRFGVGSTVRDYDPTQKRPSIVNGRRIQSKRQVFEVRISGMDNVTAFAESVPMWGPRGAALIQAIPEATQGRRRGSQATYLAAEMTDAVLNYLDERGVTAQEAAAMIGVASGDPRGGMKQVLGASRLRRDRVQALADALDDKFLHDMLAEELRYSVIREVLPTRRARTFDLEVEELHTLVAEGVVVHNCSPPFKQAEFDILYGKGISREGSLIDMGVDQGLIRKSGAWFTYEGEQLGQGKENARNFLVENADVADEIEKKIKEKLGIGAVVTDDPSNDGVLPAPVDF
# [9] = target: T3, Polyadenylate-binding protein 1 (Homo sapiens, UniProt P11940); test: MLLE binding blockers, Cy5 peptide tracer – biochemical, fluorescence polarization, Cy5-PAM2 peptide, secondary, miRNA deadenylation inhibitor project, dose response (AID 602260); type: functional; settings: read-out: IC50_Mean
# [10] = target: Mitochondrial peptide methionine sulfoxide reductase (Bos taurus, UniProt P54149); test: Absorbance-based biochemical high throughput dose response assay for activators of Methionine sulfoxide reductase A (MsrA).; type: functional
# [11] = target: T3, Polyadenylate-binding protein 1; test: MLLE domain peptide-binding blockers, IC50 – biochemical, fluorescence polarization, FITC-PAM2 peptide, dose response (AID 602259); type: functional; settings: read-out: IC50_Mean
# [12] = bead-based luminescence quenchers, dual-tagged ARNT – biochemical, AlphaScreen, cherry-pick, artefact control for ARNT-TACC3 interaction inhibitor project, dose response (AID 651705); type: functional;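 further: AlphaScreen bead proximity signal that flags compounds interfering with the detection technology; potency reflects signal decrease which marks the compound as an assay artifact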
# [13] = target: Matrix metalloproteinase-14 (Homo sapiens, UniProt P50281); test: Dose Response confirmation of uHTS hits for a small molecule inhibitors of MT1-MMP activation in a fluorescence assay set 1.; type: functional
# Caspase-6 = Caspase-6 (Homo sapiens, UniProt P55212); test: inhibition of CASP6 peptide cleavage – biochemical, VEID-R110 fluorescence, cherry-pick, dose response (AID 720632)
# [14] = target: E3 ubiquitin-protein ligase UHRF1 (Homo sapiens, UniProt Q96T88); test: Counterscreen for inhibitors of 5-meCpG-binding domain protein 2 (MBD2): TRFRET-based biochemical high throughput dose response assay to identify inhibitors of binding of ubiquitin-like with PHD and ring finger domains 1 (UHRF1) to methylated oligonucleotide.
# [15] = target: T4, Tyrosyl-DNA phosphodiesterase 2 (Homo sapiens, UniProt O95551); test: potency against TDP2 phosphodiesterase activity – biochemical, epi absorbance, IC50, dose response (AID 743297)
# T4 sequence (O95551 whole entry): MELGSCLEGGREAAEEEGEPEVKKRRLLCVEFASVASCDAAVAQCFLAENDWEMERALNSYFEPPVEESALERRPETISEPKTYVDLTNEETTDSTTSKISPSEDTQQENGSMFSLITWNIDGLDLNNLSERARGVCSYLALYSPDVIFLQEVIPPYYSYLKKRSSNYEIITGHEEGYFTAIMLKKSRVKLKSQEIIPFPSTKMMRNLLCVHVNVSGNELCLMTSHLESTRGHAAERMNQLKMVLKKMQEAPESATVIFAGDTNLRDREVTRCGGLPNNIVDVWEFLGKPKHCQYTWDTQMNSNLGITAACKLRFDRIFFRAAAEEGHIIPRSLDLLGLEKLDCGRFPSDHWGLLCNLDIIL
# Genome polyprotein = Genome polyprotein (dengue virus type 2, UniProt P29990); test: flavivirus cap methylation enzyme inhibition – biochemical, confirmation dose response, primary screen (AID 588689); type: functional
# [16] = target: T5, Rac GTPase-activating protein 1 (Homo sapiens, UniProt Q9H0H5); test: blockers of MgcRacGAP-driven Rac1 GTP hydrolysis – biochemical, ADP Hunter fluorescence, primary and confirmatory, confirmation (AID 624330); type: functional
# T5 sequence (Q9H0H5 whole entry): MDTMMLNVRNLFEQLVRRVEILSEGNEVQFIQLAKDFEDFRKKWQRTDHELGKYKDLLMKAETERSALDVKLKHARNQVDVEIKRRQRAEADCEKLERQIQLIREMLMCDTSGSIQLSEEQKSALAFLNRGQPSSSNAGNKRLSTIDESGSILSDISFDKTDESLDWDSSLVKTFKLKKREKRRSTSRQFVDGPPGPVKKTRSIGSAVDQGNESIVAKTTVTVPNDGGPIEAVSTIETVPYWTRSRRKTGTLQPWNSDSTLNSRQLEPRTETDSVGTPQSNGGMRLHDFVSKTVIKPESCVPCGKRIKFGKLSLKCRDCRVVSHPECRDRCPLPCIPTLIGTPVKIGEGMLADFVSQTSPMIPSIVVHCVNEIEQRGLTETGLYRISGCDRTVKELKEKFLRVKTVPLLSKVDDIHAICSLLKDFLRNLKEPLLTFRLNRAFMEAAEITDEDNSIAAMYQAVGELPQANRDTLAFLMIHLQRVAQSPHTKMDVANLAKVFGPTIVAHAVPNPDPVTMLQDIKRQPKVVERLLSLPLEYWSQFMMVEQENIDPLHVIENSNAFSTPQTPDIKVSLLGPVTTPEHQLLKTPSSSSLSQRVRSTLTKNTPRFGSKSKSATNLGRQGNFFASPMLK
# [17] = target: 1-phosphatidylinositol 4,5-bisphosphate phosphodiesterase gamma-1 (Homo sapiens, UniProt P19174); test: Counterscreen for inhibitors of phospholipase C isozymes (PLC-B3): Fluorescence-based biochemical high throughput dose response assay to identify inhibitors of phospholipase C isozymes (PLC-gamma1).
# [18] = target: 1-phosphatidylinositol 4,5-bisphosphate phosphodiesterase beta-3 (Homo sapiens, UniProt Q01970); test: Fluorescence-based biochemical high throughput dose response assay to identify inhibitors of phospholipase C isozymes (PLC-B3).
# [19] = target: Glutathione-S-transferase (Schistosoma japonicum, UniProt Q26513); test: GST-antibody interaction or FRET quenching – biochemical, TR-FRET, artefact control for Vif-APOBEC3G degradation inhibitor project, dose response (AID 1117362); type: functional
# [20] = target: T6, Endoplasmic reticulum aminopeptidase 1 (Homo sapiens, UniProt Q9NZ08); test: inhibition of human ERAP1 enzyme activity – biochemical, cherry-pick, set 2, plate reader, dose response (AID 743314)
# [21] = target: T6, Endoplasmic reticulum aminopeptidase 1; test: blocking ERAP1 cleavage of leucine-AMC substrate – biochemical, fluorescence plate reader, dry powder, dose response (AID 1117292); type: functional
# [22] = target: Heat shock protein HSP 90-alpha (Homo sapiens, UniProt P07900); type: functional, organism-based
# Vero [23] = test: cells; type: functional, cell-based; settings: Chlorocebus sabaeus
# HSP90 = HSP90 (Plasmodium falciparum 3D7, UniProt Q8IL32); type: functional, organism-based
# Vero [24] = test: cells; type: functional; settings: Chlorocebus sabaeus
# [25] = CellTiter-Glo luminescence survival assay, SW480 colon tumor line, concentration-response curve, half-maximal inhibitory concentration (AID 1117338); type: functional
# [26] = RKO cell viability reduction, dose response, CellTiter-Glo luminescence (AID 1117322); type: functional
# [27] = cytotoxicity toward HCT116 cells – cell-based, CellTiter-Glo luminescence, IC50, dose response (AID 1117332); type: functional; settings: HCT-116
# [28] = SNU-C1 cell viability reduction, dose response, CellTiter-Glo luminescence (AID 1117323); type: functional, cell-based
# [29] = cytotoxicity toward Colo320 cells – cell-based, CellTiter-Glo luminescence, IC50, dose response (AID 1117334); type: functional; settings: COLO 320
# [30] = cytotoxicity toward HT-29 cells – cell-based, CellTiter-Glo luminescence, IC50, dose response (AID 1117330); type: functional
# [31] = Reduced DLD-1 viability, concentration-response, CellTiter-Glo luminescence (AID 1117352); type: functional
# [32] = HCT116 cell viability decrease, GSK3B pretreatment – CellTiter-Glo, IC50, dose response (AID 1117339); type: functional; settings: HCT-116
# T6 sequence (Q9NZ08 whole entry): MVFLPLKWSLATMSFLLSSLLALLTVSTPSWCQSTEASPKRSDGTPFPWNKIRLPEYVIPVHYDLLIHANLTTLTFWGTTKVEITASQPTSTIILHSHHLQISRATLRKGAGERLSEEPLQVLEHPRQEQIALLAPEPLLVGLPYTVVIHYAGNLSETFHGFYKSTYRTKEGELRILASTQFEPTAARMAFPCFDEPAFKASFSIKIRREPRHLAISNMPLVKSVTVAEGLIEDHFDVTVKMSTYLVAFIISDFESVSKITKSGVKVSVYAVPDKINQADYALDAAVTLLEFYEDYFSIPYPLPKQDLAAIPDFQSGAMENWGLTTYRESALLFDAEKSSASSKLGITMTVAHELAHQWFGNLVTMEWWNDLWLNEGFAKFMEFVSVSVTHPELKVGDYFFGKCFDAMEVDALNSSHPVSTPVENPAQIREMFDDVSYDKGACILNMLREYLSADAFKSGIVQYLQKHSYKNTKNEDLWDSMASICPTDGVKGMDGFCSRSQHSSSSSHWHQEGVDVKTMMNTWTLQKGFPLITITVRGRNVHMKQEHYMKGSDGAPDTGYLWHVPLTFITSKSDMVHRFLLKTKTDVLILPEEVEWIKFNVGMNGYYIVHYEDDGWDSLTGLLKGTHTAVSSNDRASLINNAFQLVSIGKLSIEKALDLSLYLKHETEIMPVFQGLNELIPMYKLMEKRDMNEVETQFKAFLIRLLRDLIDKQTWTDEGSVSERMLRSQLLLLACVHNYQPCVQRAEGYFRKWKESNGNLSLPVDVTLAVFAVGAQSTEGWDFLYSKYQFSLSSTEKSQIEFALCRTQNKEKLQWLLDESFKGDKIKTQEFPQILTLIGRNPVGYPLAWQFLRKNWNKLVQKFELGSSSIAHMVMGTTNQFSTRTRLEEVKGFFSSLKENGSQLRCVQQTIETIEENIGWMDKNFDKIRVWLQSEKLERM
# T3 sequence (P11940 whole entry): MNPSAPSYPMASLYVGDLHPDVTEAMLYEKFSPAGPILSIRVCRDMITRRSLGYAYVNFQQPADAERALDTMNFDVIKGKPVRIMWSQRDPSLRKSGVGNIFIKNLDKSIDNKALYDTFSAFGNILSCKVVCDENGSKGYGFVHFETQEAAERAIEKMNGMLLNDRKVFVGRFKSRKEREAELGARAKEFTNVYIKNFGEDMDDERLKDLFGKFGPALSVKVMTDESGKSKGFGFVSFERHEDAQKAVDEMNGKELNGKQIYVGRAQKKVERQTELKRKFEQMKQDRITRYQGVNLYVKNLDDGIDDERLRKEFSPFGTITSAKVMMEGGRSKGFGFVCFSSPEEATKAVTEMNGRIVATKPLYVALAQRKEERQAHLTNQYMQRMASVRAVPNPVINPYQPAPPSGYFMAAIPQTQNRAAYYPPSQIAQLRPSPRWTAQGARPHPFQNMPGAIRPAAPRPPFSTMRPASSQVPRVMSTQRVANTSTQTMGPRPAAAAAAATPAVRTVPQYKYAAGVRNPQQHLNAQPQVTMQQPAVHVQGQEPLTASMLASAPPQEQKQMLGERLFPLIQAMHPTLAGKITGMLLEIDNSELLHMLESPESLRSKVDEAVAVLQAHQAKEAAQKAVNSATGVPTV
# Sequence of Genome polyprotein (P29990 2492-3391 limits assumed): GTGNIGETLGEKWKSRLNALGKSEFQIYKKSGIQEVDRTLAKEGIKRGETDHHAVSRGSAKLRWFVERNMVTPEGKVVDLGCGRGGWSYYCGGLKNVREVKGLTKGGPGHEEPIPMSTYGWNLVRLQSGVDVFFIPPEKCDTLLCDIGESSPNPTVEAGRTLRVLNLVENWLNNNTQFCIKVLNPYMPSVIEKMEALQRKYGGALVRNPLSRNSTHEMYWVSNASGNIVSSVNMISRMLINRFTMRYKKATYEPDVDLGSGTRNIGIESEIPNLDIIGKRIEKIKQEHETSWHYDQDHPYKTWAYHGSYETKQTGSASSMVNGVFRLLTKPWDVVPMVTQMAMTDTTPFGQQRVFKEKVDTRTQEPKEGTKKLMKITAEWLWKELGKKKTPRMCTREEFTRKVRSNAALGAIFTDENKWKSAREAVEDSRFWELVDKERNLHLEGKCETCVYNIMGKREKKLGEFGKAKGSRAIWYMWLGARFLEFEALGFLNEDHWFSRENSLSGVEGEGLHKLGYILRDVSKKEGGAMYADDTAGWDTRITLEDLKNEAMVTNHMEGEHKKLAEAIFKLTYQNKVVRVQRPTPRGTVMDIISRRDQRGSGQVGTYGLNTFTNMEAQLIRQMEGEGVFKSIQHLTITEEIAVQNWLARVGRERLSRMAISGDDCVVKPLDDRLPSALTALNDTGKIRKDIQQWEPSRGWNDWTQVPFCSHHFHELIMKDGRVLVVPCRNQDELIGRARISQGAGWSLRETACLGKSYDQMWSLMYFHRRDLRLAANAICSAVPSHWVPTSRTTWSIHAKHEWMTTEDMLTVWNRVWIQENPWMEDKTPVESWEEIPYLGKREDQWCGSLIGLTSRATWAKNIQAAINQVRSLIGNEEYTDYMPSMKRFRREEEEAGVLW
# Sequence of 1-phosphatidylinositol 4,5-bisphosphate phosphodiesterase beta-3 (Q01970 whole entry): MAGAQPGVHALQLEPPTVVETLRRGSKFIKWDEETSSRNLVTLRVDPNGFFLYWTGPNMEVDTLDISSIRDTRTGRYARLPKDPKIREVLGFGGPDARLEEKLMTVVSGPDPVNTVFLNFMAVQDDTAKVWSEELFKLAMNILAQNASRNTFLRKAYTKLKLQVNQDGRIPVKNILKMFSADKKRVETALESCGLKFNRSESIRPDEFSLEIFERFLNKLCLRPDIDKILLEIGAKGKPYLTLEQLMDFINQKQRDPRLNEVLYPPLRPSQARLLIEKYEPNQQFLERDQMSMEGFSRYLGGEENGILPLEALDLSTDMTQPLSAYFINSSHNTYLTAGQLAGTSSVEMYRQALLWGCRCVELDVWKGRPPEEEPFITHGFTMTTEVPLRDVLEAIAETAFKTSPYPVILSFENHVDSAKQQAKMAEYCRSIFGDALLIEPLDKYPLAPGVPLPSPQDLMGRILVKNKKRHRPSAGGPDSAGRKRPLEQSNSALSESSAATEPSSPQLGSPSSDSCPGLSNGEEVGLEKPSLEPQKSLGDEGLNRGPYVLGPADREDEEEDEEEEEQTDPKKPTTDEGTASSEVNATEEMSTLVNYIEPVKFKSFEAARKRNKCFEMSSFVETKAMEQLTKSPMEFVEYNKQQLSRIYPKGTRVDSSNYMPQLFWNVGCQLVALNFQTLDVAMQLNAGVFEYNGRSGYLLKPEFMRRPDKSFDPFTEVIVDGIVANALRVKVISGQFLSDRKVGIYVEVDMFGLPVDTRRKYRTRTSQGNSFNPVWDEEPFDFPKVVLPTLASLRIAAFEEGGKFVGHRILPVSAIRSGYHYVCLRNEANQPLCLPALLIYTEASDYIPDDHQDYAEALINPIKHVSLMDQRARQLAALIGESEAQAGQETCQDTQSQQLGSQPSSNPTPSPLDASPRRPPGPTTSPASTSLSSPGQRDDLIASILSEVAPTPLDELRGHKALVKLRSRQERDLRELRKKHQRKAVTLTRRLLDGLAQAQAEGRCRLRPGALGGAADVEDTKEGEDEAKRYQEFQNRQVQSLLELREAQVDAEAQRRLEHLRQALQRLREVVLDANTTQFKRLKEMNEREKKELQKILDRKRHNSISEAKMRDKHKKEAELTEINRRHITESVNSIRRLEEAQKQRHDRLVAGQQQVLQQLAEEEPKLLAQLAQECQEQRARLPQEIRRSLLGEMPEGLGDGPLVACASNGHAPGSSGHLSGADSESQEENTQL
# Sequence of 1-phosphatidylinositol 4,5-bisphosphate phosphodiesterase gamma-1 (P19174 whole entry): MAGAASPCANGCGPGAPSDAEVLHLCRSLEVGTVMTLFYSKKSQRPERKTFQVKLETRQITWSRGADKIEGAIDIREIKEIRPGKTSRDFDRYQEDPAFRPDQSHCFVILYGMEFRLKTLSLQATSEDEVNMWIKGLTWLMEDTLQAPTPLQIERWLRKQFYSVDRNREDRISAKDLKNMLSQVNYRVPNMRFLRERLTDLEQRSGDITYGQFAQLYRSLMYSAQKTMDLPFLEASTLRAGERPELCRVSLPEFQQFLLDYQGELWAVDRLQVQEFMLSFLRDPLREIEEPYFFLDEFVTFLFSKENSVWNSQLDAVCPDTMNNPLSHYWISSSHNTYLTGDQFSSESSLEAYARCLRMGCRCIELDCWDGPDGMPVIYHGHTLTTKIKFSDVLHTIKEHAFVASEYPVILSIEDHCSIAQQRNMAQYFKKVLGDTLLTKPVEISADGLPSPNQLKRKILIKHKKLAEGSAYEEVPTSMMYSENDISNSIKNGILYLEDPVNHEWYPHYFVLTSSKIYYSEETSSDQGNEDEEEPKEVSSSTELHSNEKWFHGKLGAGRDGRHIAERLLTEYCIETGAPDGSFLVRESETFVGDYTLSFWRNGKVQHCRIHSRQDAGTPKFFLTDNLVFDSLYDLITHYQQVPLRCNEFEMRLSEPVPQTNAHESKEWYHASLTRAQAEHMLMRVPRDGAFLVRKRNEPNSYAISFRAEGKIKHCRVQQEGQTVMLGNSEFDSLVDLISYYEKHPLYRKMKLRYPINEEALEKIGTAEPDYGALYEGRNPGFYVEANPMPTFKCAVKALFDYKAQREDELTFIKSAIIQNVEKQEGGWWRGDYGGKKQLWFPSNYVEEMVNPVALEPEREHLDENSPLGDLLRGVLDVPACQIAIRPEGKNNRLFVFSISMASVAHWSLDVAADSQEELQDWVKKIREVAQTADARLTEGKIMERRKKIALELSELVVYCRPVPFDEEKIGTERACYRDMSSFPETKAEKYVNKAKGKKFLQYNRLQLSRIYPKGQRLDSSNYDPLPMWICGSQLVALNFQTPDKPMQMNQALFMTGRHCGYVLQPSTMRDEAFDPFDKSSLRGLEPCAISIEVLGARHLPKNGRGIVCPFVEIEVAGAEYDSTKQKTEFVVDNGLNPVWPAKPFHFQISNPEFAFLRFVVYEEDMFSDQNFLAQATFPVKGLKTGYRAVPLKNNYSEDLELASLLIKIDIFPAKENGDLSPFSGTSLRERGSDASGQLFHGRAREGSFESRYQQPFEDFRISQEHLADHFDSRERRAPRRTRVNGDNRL
smiles,measurement,setting,value
COc1ccc2c3c([nH]c2c1)[C@H](CO)N(C(C)=O)CC31CCN(S(=O)(=O)c2ccccc2)CC1,AC50,[1],9.86 µM (active)
O=C(c1cccnc1)N1C[C@@H]2[C@H](c3ccccc31)[C@H](CO)N2CC1CCCC1,AC50,[2],> 47 µM (inactive)
same,AC50,[3],> 47 µM (inactive)
same,AC50,[4],> 60 µM (inactive)
CNc1ccc2nc3ccccc3[n+](C)c2c1.[O-][Cl+3]([O-])([O-])[O-],EC50,[5],0.689 µM (active)
same,CC50,[6],18.3 µM (active)
same,EC50,[7],> 60 µM (not active)
same,AC50,[8],> 380 µM (inactive)
same,EC50,Protein RecA,2.37 µM (active)
same,IC50,[9],35.1 µM (inactive)
same,EC50,[10],2.13 µM (active)
same,IC50,[11],18 µM (active)
same,AC50,[12],133 µM (active)
same,IC50,[13],14 µM (active)
same,AC50,Caspase-6,2.79 µM (active)
same,IC50,[14],> 43.8 µM (inactive)
same,IC50,[15],> 128 µM (inactive)
O=C(O)c1cccc2cccc(-c3c4ccc(=O)c(O)c-4oc4c(O)c(O)ccc34)c12,IC50,Genome polyprotein,14.6 µM (active)
same,IC50,[16],13.3 µM (active)
same,IC50,[17],> 122 µM (inactive)
same,IC50,[18],> 122 µM (inactive)
same,IC50,[19],> 100 µM (active)
N=C(NCCc1c[nH]c2ccccc12)NS(=O)(=O)c1cc(F)ccc1F,AC50,[20],6.09 µM (active)
same,AC50,[21],59.9 µM (active)
Oc1c(Br)cc(Br)c2cccnc12 [BROXYQUINOLINE],AC50,[22],0.7 µM (active)
same,IC50,Vero [23],> 25 µM (active)
same,AC50,HSP90,0.373 µM (active)
same,CC50,Vero [24],18.7 µM (active)
same,IC50,[25],0.132 µM (active)
same,IC50,[26],0.163 µM (active)
same,IC50,[27],0.193 µM (active)
same,IC50,[28],0.366 µM (active)
same,IC50,[29],0.114 µM (active)
same,IC50,[30],5.25 µM (inactive)
same,IC50,[31],0.157 µM (active)
same,IC50,[32],0.183 µM (active)
